Measured values: ChEMBL document CHEMBL3991601, “The target landscape of clinical kinase drugs” (Science, 2017)
Active and inactive are the calls of the source.

Columns and labels:
[1] = molecular target: T1, Peroxisomal acyl-coenzyme A oxidase 3 (Homo sapiens, UniProt O15254)
T1 sequence (O15254 whole entry): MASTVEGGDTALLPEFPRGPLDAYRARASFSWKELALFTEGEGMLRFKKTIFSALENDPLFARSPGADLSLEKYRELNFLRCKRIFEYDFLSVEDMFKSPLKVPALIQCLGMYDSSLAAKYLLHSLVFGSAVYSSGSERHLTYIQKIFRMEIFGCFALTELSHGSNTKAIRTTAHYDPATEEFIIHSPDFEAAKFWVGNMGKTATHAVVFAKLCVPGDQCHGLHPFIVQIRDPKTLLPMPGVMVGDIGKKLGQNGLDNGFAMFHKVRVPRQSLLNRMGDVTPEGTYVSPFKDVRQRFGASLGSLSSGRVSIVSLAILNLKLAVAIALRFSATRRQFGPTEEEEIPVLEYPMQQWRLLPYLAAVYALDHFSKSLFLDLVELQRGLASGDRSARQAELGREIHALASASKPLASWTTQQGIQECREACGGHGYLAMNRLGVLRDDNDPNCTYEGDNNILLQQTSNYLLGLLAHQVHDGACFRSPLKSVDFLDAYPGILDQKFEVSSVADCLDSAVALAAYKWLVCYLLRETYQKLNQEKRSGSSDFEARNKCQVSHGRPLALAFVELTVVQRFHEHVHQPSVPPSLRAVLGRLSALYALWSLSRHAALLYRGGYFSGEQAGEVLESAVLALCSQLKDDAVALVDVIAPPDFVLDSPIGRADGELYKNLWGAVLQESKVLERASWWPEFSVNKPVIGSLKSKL

[2] = molecular target: T2, Serine/threonine-protein kinase A-Raf (Homo sapiens, UniProt P10398)
T2 sequence (P10398 whole entry): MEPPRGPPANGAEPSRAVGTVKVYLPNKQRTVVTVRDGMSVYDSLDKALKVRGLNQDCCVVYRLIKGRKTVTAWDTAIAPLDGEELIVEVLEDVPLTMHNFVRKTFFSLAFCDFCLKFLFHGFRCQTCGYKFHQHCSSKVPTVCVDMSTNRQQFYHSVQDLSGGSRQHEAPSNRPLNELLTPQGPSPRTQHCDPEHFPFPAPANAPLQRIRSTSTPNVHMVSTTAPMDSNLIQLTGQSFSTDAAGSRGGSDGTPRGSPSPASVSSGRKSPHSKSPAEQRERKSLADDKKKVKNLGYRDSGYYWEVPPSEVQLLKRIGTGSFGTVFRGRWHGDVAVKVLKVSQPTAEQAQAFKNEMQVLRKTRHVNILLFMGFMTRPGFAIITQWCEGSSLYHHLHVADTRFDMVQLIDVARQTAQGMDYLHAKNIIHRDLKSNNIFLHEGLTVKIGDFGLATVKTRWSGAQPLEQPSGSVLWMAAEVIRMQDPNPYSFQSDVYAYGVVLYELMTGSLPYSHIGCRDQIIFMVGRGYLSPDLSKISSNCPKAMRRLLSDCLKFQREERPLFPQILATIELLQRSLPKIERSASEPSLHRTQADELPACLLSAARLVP

[3] = molecular target: ATP-dependent RNA helicase DDX3X (Homo sapiens, UniProt O00571)
Sequence of ATP-dependent RNA helicase DDX3X (O00571 whole entry): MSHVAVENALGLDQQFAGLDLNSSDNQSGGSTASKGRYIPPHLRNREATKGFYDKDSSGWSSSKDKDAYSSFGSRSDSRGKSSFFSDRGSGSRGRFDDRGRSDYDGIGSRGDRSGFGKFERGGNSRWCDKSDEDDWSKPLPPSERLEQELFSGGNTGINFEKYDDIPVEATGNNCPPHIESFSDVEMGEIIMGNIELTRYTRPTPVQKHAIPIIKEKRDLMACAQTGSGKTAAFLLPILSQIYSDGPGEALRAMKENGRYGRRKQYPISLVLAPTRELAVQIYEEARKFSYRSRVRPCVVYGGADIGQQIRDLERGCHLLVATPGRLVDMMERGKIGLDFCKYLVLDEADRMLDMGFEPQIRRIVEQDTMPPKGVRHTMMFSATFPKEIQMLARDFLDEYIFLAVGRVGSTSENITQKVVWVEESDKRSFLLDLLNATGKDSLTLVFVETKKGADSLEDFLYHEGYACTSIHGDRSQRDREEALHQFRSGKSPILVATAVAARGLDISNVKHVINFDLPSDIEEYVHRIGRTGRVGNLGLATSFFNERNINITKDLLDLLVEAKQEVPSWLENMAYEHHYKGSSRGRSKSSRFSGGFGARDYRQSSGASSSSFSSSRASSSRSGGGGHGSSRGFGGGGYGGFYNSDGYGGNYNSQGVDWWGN

[4] = molecular target: T3, ATP-dependent RNA helicase DDX42 (Homo sapiens, UniProt Q86XP3)
T3 sequence (Q86XP3 whole entry): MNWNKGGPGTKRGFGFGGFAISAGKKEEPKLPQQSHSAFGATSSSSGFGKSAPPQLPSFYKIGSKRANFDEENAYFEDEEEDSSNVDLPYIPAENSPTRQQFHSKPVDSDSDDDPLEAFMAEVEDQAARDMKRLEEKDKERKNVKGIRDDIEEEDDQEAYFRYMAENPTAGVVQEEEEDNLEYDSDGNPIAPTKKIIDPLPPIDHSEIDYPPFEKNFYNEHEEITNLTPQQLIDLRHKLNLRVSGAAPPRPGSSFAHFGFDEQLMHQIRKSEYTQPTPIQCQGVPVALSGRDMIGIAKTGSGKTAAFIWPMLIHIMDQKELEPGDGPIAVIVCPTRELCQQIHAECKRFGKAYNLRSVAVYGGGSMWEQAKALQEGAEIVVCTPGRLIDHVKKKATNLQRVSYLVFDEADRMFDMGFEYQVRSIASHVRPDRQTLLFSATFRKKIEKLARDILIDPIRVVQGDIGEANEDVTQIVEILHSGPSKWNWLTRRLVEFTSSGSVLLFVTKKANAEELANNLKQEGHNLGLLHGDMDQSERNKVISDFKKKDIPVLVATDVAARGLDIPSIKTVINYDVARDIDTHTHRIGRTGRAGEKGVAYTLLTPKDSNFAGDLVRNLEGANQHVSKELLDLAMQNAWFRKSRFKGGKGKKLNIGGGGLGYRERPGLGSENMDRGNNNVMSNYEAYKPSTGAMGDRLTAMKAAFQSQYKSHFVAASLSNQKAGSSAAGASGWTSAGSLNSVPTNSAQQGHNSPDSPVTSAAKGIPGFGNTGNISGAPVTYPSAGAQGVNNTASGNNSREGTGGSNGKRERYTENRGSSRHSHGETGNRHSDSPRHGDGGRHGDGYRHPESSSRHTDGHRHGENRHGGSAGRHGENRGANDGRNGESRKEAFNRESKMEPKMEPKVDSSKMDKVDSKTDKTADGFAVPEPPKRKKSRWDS

[5] = molecular target: Fibroblast growth factor receptor 1 (Homo sapiens, UniProt P11362)
Sequence of Fibroblast growth factor receptor 1 (P11362 whole entry): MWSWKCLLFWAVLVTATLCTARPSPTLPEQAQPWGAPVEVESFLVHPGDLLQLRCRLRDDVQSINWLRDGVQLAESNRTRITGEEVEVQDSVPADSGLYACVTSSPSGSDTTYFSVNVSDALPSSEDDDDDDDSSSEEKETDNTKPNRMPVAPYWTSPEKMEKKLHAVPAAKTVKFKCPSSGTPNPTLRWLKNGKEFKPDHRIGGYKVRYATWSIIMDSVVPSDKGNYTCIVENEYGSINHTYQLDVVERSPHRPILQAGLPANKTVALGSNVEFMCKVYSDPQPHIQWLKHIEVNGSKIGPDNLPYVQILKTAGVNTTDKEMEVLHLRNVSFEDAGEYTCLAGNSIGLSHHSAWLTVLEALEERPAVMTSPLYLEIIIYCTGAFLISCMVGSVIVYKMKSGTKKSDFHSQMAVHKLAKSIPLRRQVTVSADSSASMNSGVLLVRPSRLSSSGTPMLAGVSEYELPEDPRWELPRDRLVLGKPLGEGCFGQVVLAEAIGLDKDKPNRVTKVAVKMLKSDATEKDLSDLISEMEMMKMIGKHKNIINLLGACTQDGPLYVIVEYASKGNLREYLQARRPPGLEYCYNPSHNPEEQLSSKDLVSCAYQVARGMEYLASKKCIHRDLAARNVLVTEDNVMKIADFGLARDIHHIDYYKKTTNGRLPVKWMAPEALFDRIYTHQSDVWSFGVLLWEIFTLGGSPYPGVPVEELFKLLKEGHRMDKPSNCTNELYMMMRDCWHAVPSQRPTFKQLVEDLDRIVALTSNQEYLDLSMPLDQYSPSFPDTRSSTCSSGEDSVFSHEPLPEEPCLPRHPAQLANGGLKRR

Heme oxygenase 2 = molecular target: T4, Heme oxygenase 2 (Homo sapiens, UniProt P30519)
T4 sequence (P30519 whole entry): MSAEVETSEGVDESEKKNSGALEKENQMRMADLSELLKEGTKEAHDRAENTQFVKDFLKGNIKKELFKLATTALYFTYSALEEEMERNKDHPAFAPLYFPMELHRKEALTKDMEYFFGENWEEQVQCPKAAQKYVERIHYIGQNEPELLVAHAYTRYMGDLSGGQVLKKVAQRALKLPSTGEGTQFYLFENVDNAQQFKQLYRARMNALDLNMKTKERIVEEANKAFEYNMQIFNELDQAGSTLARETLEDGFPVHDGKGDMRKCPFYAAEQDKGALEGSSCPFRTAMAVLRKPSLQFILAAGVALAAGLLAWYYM

[6] = molecular target: Tyrosine-protein kinase JAK1 (Homo sapiens, UniProt P23458)
Sequence of Tyrosine-protein kinase JAK1 (P23458 whole entry): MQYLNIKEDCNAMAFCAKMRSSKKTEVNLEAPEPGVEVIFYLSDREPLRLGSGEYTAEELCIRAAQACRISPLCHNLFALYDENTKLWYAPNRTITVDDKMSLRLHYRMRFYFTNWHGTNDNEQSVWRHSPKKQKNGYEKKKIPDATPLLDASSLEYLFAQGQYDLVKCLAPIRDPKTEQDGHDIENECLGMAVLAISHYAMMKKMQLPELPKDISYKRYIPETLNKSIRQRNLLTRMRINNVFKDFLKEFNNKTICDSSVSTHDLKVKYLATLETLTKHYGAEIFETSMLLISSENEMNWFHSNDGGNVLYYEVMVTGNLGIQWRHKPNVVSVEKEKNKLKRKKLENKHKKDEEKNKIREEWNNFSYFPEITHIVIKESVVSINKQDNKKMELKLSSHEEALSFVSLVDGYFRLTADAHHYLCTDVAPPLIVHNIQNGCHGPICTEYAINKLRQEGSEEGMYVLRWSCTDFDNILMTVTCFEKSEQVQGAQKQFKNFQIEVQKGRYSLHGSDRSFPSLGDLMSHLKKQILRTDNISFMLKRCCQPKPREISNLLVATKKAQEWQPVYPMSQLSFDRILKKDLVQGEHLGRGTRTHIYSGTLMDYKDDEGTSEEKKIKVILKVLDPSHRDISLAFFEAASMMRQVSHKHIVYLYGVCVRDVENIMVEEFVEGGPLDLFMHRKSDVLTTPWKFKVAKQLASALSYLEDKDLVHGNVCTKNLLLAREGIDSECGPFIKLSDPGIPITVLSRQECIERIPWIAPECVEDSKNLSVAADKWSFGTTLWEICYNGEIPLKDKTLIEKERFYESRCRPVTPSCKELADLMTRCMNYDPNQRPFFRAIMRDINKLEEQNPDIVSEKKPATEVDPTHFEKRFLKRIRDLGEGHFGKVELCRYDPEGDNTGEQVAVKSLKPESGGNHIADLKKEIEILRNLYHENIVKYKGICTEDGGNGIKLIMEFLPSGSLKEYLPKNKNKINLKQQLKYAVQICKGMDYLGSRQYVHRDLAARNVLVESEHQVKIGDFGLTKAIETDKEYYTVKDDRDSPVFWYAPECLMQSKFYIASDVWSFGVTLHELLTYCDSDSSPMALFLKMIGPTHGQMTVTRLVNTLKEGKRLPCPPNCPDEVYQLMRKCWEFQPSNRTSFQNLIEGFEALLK

[7] = molecular target: MAP/microtubule affinity-regulating kinase 3 (Homo sapiens, UniProt P27448)
Sequence of MAP/microtubule affinity-regulating kinase 3 (P27448 whole entry): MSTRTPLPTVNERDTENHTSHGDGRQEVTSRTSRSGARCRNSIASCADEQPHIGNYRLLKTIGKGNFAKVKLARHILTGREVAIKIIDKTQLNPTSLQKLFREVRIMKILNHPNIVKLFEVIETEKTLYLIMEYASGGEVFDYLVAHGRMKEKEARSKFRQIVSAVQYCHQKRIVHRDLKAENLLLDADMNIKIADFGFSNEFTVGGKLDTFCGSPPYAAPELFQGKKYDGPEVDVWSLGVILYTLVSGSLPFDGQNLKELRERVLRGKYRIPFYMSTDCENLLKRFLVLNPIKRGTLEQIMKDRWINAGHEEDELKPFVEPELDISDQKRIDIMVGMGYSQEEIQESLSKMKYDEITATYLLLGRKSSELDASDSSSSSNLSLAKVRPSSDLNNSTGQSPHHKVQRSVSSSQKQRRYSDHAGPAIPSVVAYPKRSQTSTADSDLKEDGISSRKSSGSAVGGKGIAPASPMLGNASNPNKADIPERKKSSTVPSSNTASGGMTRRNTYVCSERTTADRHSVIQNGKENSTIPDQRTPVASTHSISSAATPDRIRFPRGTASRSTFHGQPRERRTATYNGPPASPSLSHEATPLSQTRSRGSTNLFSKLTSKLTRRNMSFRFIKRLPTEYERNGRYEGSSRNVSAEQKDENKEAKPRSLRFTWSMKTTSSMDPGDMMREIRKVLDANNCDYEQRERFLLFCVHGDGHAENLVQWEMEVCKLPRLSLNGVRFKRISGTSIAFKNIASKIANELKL

Midasin = Midasin (Homo sapiens, UniProt Q9NU22)
[8] = molecular target: Receptor-interacting serine/threonine-protein kinase 3 (Homo sapiens, UniProt Q9Y572)
Sequence of Receptor-interacting serine/threonine-protein kinase 3 (Q9Y572 whole entry): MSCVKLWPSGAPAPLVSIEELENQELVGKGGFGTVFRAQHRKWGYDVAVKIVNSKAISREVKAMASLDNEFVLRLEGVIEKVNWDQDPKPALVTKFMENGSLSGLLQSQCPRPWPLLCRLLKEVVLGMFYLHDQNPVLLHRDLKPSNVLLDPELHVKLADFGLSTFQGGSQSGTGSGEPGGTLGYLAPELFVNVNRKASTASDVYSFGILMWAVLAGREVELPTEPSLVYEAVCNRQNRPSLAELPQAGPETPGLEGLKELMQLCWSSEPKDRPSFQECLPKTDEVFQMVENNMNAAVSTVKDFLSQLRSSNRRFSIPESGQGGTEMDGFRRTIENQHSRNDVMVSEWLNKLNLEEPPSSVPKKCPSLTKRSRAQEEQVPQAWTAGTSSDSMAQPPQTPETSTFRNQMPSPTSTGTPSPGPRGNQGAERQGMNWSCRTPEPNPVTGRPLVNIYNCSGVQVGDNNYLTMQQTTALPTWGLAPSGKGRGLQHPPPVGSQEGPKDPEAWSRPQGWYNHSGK

[9] = molecular target: Proto-oncogene tyrosine-protein kinase Src (Homo sapiens, UniProt P12931)
Sequence of Proto-oncogene tyrosine-protein kinase Src (P12931 2-536 limits assumed): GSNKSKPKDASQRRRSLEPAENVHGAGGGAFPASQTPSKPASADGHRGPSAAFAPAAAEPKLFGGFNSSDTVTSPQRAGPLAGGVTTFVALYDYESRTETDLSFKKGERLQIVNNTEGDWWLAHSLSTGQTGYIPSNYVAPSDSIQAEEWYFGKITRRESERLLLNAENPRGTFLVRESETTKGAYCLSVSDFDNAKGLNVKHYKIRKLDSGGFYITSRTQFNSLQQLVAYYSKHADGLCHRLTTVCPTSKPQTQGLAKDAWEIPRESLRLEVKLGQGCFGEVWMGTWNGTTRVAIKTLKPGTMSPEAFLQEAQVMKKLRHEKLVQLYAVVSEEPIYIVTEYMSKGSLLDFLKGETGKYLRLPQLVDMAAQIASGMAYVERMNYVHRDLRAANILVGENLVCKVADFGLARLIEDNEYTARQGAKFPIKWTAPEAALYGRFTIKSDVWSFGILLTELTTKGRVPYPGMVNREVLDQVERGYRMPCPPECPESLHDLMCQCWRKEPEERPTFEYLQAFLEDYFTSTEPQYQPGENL
Further: in the data inactive means no Kd found up to 30 µM.

Kd [1]	Kd [2]	Kd [3]	Kd [4]	Kd [5]	Kd (Heme oxygenase 2)	Kd [6]	Kd [7]	Kd (Midasin)	Kd [8]	Kd [9]	Structure (SMILES)
> 30 µM (inactive)	> 30 µM (inactive)	> 30 µM (inactive)	> 30 µM (inactive)	> 30 µM (inactive)	> 30 µM (inactive)	> 30 µM (inactive)	> 30 µM (inactive)	> 30 µM (inactive)	> 30 µM (inactive)	> 30 µM (inactive)	COc1ccc(-c2ccc3c(N4CCOC[C@@H]4C)nc(N4CCOC[C@@H]4C)nc3n2)cc1CO [AZD-8055]
> 30 µM (inactive)	> 30 µM (inactive)	> 30 µM (inactive)	> 30 µM (inactive)	> 30 µM (inactive)	> 30 µM (inactive)	> 30 µM (inactive)	> 30 µM (inactive)	> 30 µM (inactive)	> 30 µM (inactive)	> 30 µM (inactive)	CN(C)C(=O)c1cc2cnc(Nc3ccc(N4CCNCC4)cn3)nc2n1C1CCCC1 [RIBOCICLIB]
> 30 µM (inactive)	> 30 µM (inactive)	> 30 µM (inactive)	> 30 µM (inactive)	3.9 µM (active)	> 30 µM (inactive)	> 30 µM (inactive)	> 30 µM (inactive)	> 30 µM (inactive)	> 30 µM (inactive)	> 30 µM (inactive)	Cc1cc2c(F)c(Oc3ncnn4cc(OC[C@@H](C)OC(=O)[C@H](C)N)c(C)c34)ccc2[nH]1 [BRIVANIB ALANINATE]

Structure (SMILES)	Kd [1]	Kd [2]	Kd [3]	Kd [4]	Kd [5]	Kd (Heme oxygenase 2)	Kd [6]	Kd [7]	Kd (Midasin)	Kd [8]	Kd [9]
COC(=O)[C@@]1(O)C[C@H]2O[C@]1(C)n1c3ccccc3c3c4c(c5c6ccccc6n2c5c31)C(=O)NC4 [K-252A]	> 30 µM (inactive)	> 30 µM (inactive)	> 30 µM (inactive)	> 30 µM (inactive)	> 30 µM (inactive)	> 30 µM (inactive)	> 30 µM (inactive)	0.384 µM (active)	> 30 µM (inactive)	> 30 µM (inactive)	> 30 µM (inactive)
Cc1ccc(-n2nc(C(C)(C)C)cc2NC(=O)NCc2cc(F)ccc2Oc2ccc3c(cnn3CCO)c2)cc1 [PEXMETINIB]	> 30 µM (inactive)	> 30 µM (inactive)	> 30 µM (inactive)	> 30 µM (inactive)	2.67 µM (active)	> 30 µM (inactive)	> 30 µM (inactive)	> 30 µM (inactive)	> 30 µM (inactive)	0.662 µM (active)	> 30 µM (inactive)
